Data on 8 molecules can be found in patent US11708562B2, “Differentiation of human embryonic stem cells” (Janssen Biotech, Inc., priority 2006, dated 2023).

Test [1] has as its system human embryonic stem cell line H1 at passage 55. Description: Definitive endoderm on human serum coated plates (real-time PCR). Type of test: cell-based. The method, then:
Cultures of the human embryonic stem cell line H1 at passage 55 were grown and differentiated on human serum (Sigma, # H1388, MO) coated plates. 0.5 ml of human serum was added to each well of 6 well tissue culture treated dish, incubated for 1 hr at room temperature, and aspirated before adding human embryonic stem cells. […] These findings parallel our findings for human embryonic stem cells cultured on […]™ or human fibronectin coated plates.

Test [2] relates to H9P46-P48 embryonic stem cells. Nature of the test: Definitive endoderm on […]: effect of GSK-3B inhibitor (FACS CXCR4, PCR). The conditions noted are these: 20 ng/ml of Wnt-3a or 100-1000 nM GSK-3B inhibitor. Type of test: cell-based, human. As to the method:
In order to confirm that the effect of Wnt-3a was through the Wnt pathway, a GSK-3 inhibitor was used to activate the downstream targets of Wnt, such as beta catenin. […] FIG. 29A depicts the expression of CXCR4 by FACS at day 5 in the absence of Wnt-3a or GSK-3B inhibitor, b)+20 ng/ml Wnt-3a, c)+1000 nM GSK-3B inhibitor IX, d)+500 nM GSK-3B inhibitor IX, e)+100 nM GSK-3B inhibitor IX, f)+10 nM GSK-3B inhibitor IX, g)+100 nM GSK-3B inhibitor IX for days 1-2, and h)+10 nM GSK-3B inhibitor IX for days 1-2.

The subject of test [3] is H9P53 embryonic stem cells. Description: Definitive endoderm on […]: combination of Wnt-3a, GSK-3B inhibitor, BMP-4. Type of test: cell-based, human. An excerpt: Results are expressed as fold increase over untreated cells. […] Results are expressed as fold increase over untreated cells.
Test [4] deals with human embryonic stem cell line H9. Description: Formation of pancreatic endocrine cells: γ-secretase inhibitor L-685,458 (PCR). Type of test: cell-based. The conditions noted are these: L-685,458 at 10 μM for three days. The method, then: After this time interval, the cells were then treated for six days with combinations of retinoic acid and FGF as outlined in Example 2, then the culture medium was removed and replaced with medium comprising DMEM/F12 with 2% FBS, containing the γ-secretase inhibitors L-685,458 at 10 μM for three days.

The test system is the same in test [5]. Nature of the test: Formation of pancreatic endoderm: retinoic acid and bFGF after activin A (PCR, immunocytochemistry). Type of test: cell-based. An excerpt:
Final data were expressed relative to a calibrator sample.

Test [6] deals with H7P44 and H9P46 embryonic stem cells. Nature of the test: Definitive endoderm on […]: role of Wnt ligands (FACS CXCR4, real-time PCR). Conditions: H7 and H9; low serum+AA+/-Wnt ligands. Type of test: cell-based, human. As to the method:
In some of the cultures 20 ng/ml Wnt-3a (Catalog #1324-WN-002, R&D Systems, MN), 20 ng/ml Wnt-5a (Catalog #654-WN-010, R&D Systems, MN), 25 ng/ml Wnt-7a (Catalog #3008-WN-025, R&D Systems, MN), or 25 ng/ml Wnt-5b (Catalog #3006-WN-025, R&D Systems, MN) was added throughout the five day treatment. FIGS. 24A and 24B depicts phase contrast images of H9P46 definitive endoderm culture in the presence of high concentration of (a) AA or (b) AA+20 ng/ml Wnt-3a. FIGS. 25A, 25B, 25C and 25D depicts the expression of CXCR4 by FACS at day 5 for H7P44, and H9P46 lines cultured on […]™ (1:30 dilution) and exposed to the DE protocol+Wnt-3a (FIGS. 25B and 25D) and -Wnt-3a (FIGS. 25A and C).
In general terms: In qPCR the cycle at which signal appears reflects the starting amount.

In test [7] the test system is human embryonic stem cell line H9. Nature of the test: Derivation of hepatocytes from human embryonic stem cells (PCR of AFP, albumin). Conditions: five days after 7 days activin A. Type of test: cell-based.
Source text: After this time, the cells were harvested, and samples of mRNA were collected for analysis.

On to `O=C1Nc2cc(Br)ccc2/C1=C1/Nc2ccccc2/C1=N\O` [GSK-3B inhibitor IX, reference compound], for which the “expression of definitive endoderm markers compared to activin A only” value in test [1] is reported as “Robust expression”. For the same molecule, the “number of CXCR4 positive cells (FACS)” value in test [2] is listed as “significantly increased”. For the same molecule, the “definitive endoderm markers, combination versus each agent by itself” value in test [3] (Wnt-3A plus GSK inhibitor in the presence of activin A) is recorded as “do not lead to significant upregulation”.

Turning to `CC(C)C[C@H](NC(=O)[C@H](Cc1ccccc1)C[C@@H](O)[C@H](Cc1ccccc1)NC(=O)OC(C)(C)C)C(=O)N[C@@H](Cc1ccccc1)C(N)=O` [L-685,458], the “expression of Ngn3 relative to activin A alone or retinoic acid with FGFs” value in test [4] is “approximately 50 fold”.

For `CC1=C(/C=C/C(C)=C/C=C/C(C)=C/C(=O)O)C(C)(C)CCC1` [retinoic acid, all-trans retinoic acid], in test [5] (1 μM retinoic acid and 50 ng/ml bFGF, absence of activin A), the “expression of GLUT-2 and PTF1a” value is given as “largest increase”. Further, the “Pdx1 expression relative to activin A treatment alone for 5 days” value in test [5] (three days activin A, then 5 days retinoic acid and 50 ng/ml bFGF in the absence of activin A) is recorded as “approximately 3500 fold”.

B1: Wnt-5a: Wnt ligand, Catalog #654-WN-010, R&D Systems (protein, UniProt P22725 62-380, looked up)
Protein Wnt-5a: IIGAQPLCSQLAGLSQGQKKLCHLYQDHMQYIGEGAKTGIKECQYQFRHRRWNCSTVDNTSVFGRVMQIGSRETAFTYAVSAAGVVNAMSRACREGELSTCGCSRAARPKDLPRDWLWGGCGDNIDYGYRFAKEFVDARERERIHAKGSYESARILMNLHNNEAGRRTVYNLADVACKCHGVSGSCSLKTCWLQLADFRKVGDALKEKYDSAAAMRLNSRGKLVQVNSRFNSPTTQDLVYIDPSPDYCVRNESTGSLGTQGRLCNKTSEGMDGCELMCCGRGYDQFKTVQTERCHCKFHWCCYVKCKKCTEIVDQFVCK
Take B1: the “expression of definitive endoderm markers (real-time PCR)” value (“expression … (real-time PCR)” below) in test [6] is on record as “minimal impact”.

B2: Wnt-7a: Wnt ligand, Catalog #3008-WN-025, R&D Systems (protein, UniProt O00755 32-349, looked up)
Protein Wnt-7a: LGASIICNKIPGLAPRQRAICQSRPDAIIVIGEGSQMGLDECQFQFRNGRWNCSALGERTVFGKELKVGSREAAFTYAIIAAGVAHAITAACTQGNLSDCGCDKEKQGQYHRDEGWKWGGCSADIRYGIGFAKVFVDAREIKQNARTLMNLHNNEAGRKILEENMKLECKCHGVSGSCTTKTCWTTLPQFRELGYVLKDKYNEAVHVEPVRASRNKRPTFLKIKKPLSYRKPMDTDLVYIEKSPNYCEEDPVTGSVGTQGRACNKTAPQASGCDLMCCGRGYNTHQYARVWQCNCKFHWCCYVKCNTCSERTEMYTCK
In the case of B2, the “expression … (real-time PCR)” value in test [6] is “minimal impact”.

B3: FGF-4: member of the fibroblast growth factor family (protein, UniProt P08620 31-206, looked up)
Fibroblast growth factor 4: APTAPNGTLEAELERRWESLVALSLARLPVAAQPKEAAVQSGAGDYLLGIKRLRRLYCNVGIGFHLQALPDGRIGGAHADTRDSLLELSPVERGVVSIFGVASRFFVAMSSKGKLYGSPFFTDECTFKEILLPNNYNAYESYKYPGMFIALSKNGKTKKGNRVSPTMKVTHFLPRL
B3: in test [7], the “expression of α-fetoprotein (AFP) and albumin” value is given as “further increased”.

B4: Wnt-5b: Wnt ligand, Catalog #3006-WN-025, R&D Systems (protein, UniProt P22726 18-359, looked up)
Protein Wnt-5b: QLLTDANSWWSLALNPVQRPEMFIIGAQPVCSQLPGLSPGQRKLCQLYQEHMSYIGEGAKTGIRECQHQFRQRRWNCSTVDNTSVFGRVMQIGSRETAFTYAVSAAGVVNAISRACREGELSTCGCSRAARPKDLPRDWLWGGCGDNVEYGYRFAKEFVDAREREKNFAKGSEEQGRALMNLQNNEAGRRAVYKMADVACKCHGVSGSCSLKTCWLQLAEFRKVGDRLKEKYDSAAAMRITRQGKLELANSRFNQPTPEDLVYVDPSPDYCLRNETTGSLGTQGRLCNKTSEGMDGCELMCCGRGYDRFKSVQVERCHCRFHWCCFVRCKKCTEVVDQYVCK
As for B4, the “expression … (real-time PCR)” value in test [6] is recorded as “minimal impact”.

B5: BMP-4: Catalog #314-BP-010, R&D Systems (protein, UniProt P12644 293-408, looked up)
Bone morphogenetic protein 4: SPKHHSQRARKKNKNCRRHSLYVDFSDVGWNDWIVAPPGYQAFYCHGDCPFPLADHLNSTNHAIVQTLVNSVNSSIPKACCVPTELSAISMLYLDEYDKVVLKNYQEMVVEGCGCR
In the case of B5, the “effect of addition of BMP-4 to the DE protocol” value in test [3] (25 ng/ml BMP-4) was “induce formation of mesoderm marker BRY”.
